Data reported in US20230190887A1, “TARGETING G3BP AGGREGATION TO PREVENT NEURODEGENERATION” (priority 2019, published 2023).

Legend:
[1] = tested on: TIA1, G3BP1 and TDP43 granules in E12.5 motor neurons; assay: Stress granule protein granules in neurites of arsenite-treated motor neurons; format: cell-based, mouse; conditions: sodium arsenite 0.5 mM 30 minutes, then 10 μM peptide; for number of flag-TDP43 granules greater than 2 μm^2 per 100 μm of neurite: WT and ALS mutant flag-TDP43; for number of large TIA1-GFP granules (>2 μm^2) in neurites: WT and mutant TIA1-GFP
Excerpt: To further evaluate whether mutant TIA1 and TDP43 protein aggregates are affected by G3BP1 190-208 peptide, the inventors expressed the mutant proteins in embryonic motor neurons and assessed granules formed in neurites with or without arsenite treatment either in the presence of G3BP1 190-208 or control 168-189 peptide.
FIG. 6: Cell permeable G3BP1 190-208 peptide decreases granules formed by endogenous TIA1 and TDP43 and exogenous TDP43 and TIA1 mutants in motor neurons after sodium arsenite exposure. (A) Embryonic motor neurons isolated from E12.5 mouse embryos were exposed to sodium arsenite (0.5 mM) for 30 minutes and then treated with 10 μM 190- 208 or […] peptide. After fixation endogenous TIA1 was visualized by immunostaining. The number of TIA1 granules greater than 2 μm^2 per 100 μm of neurite were measured. (B) E12.5 motor neurons were treated as described in (A) and immunostaining was used to detect endogenous G3BP1 protein. The number of G3BP1 granules greater than 2 μm^2 per 100 μm of neurite were measured. […] (C) E12.5 motor neurons expressing TIA1-GFT or ALS/FTD-associated mutants TIA1-A381T, TIA1-E384K were treated with sodium arsenite (0.5 mM) for 30 minutes followed by treatment with either 10 μM 190-208 G3BP1 or 168-189 control peptide. The number of cells containing TIA1-GFP puncta were measured 2 μm^2 per 100 μm of neurite and results are reported relative to non-treated controls. The number of TIA1-GFP granules in neurites decreased for WT and ALS/FTD mutants after treatment with 190-208 G3BP1 as compared to the 168-189 control peptide treated cells. (I)) E12.5 motor neurons expressing flag-tagged wildtype TDP43 or ALS-associated mutants TDP43-M337V and TDP43-Q331.K were treated with sodium arsenite (0.5 mM) for 30 minutes followed by treatment with either 10 μM 190-208 G3BP1 or 168189 control peptide. Flag-TDP43 was detected by immunostaining using the anti-flag-antibody. The number of flag-TDP43 granules greater than 2 μm^2 were measured per 100 μm of neurite and the results are reported relative to non-treated controls. The number of Flag-TDP43 granules in neurites were decreased after treatment with 190-208 G3BP1 peptide as compared to the 168-189 control peptide in both WT and ALS/FTD mutants expressing cells. ([…] over 3 cultures; by two-way ANOVA with Tukey HSD post-hoc),

[2] = tested on: G3BP1-mCherry aggregates in DRG axons; assay: Live cell imaging of G3BP1-mCherry granules; format: cell-based, rat; conditions: 10 μM peptide, 15 min
Procedure: Live cell imaging for G3BP1-mCherry granules. DRG neurons were transfected with G3BP1-mCherry, and 36 h later distal axons were imaged using Leica SP8X confocal microscope with environmental chamber maintained at 37° C., 5% CO2 (with 63×/1.4 NA oil immersion objective). G3BP1-mCherry signals were imaged as single optical planes in the axon shaft every 2 s for 100 frames (at 540 nm excitation and 23% white light laser power; 565-597 nm emission). To study the effect of the G3BP1 190-208 or 168-189 peptide, 10 μM FITC-conjugated peptide was added to the media and 15 min later imaging was continued.
For quantitation of G3BP1-mCherry aggregates density and size, a 100 μm of the axon shaft was considered (≥200 μm from cell body). Thresholding was applied to acquired image sequences using ImageJ to generate binary masks.
ImageJ particle analyzer was used for analysis. G3BP1 aggregates with area≥1 μm^2 were considered as SG-like structures. For analyzing the G3BP1 aggregate velocity, ImageJ Trackmate plug-in was used.

[3] = tested on: E12.5 motor neurons; assay: MPP+-induced degeneration of motor neuron neurites (in vitro ALS model); format: cell-based, mouse; conditions: DIV7 E12.5 motor neurons, 100 μM MPP+ 16-18 hours, with 10 μM peptide
Procedure: Non-treated cultures were used as controls (FIG. 3A).
(A) Quantification of mitotoxin/neurotoxin MPP+-induced degeneration of DIV7 E12.5 motor neuron neurites after exposure of cultures to 100 μM MPP+ and either 10 μM 190-208 G3BP1 or 168-189 control peptide. As controls, neurons treated with solvents were used. (B) Representative images of G3BP1 (green) and NF-labeled (red) E12.5 motor neurons under control or after treatment with 100 μM MPP+ [scale bar=10 μm]. (C) distribution of sizes of endogenous G3BP1 aggregate per 100 μm neurite is shown as indicated bins from motor neurons cultures as treated in (B). (N≥80 neurites over three repetitions; by one-way ANOVA with Tukey HSD post-hoc). […] (D) Endogenous G3BP1 aggregate sizes per 100 μm neurite indicated as bins for motor neurons either untreated or treated with MPP+ alone or with addition of 10 μM 190-208 G3BP1 or 168-189 control peptide. […] (N≥90 over 3 cultures; by one-way ANOVA with Tukey HSD post-hoc)

[4] = tested on: primary MNs

YGNKKNNNQNNN-VVEPEPEPEPEPEPEPVSE [G3BP1 190-208 peptide]
number of flag-TDP43 granules greater than 2 μm^2 per 100 μm of neurite [1]: reversed
number of flag-TDP43 granules greater than 2 μm^2 per 100 μm of neurite ([1]; listed as 190-208 G3BP1 peptide): decreased
number of large TIA1-GFP granules (>2 μm^2) in neurites [1]: decrease in the number of large granules
number of large TIA1-GFP granules (>2 μm^2) in neurites ([1]; listed as 190-208 G3BP1): decreased
number of endogenous TIA1 and G3BP1 granules greater than 2 μm^2 per 100 μm of neurite [1]: reverses the increase number of these larger granules
number of endogenous TIA1 and G3BP1 granules greater than 2 μm^2 per 100 μm of neurite ([1]; listed as 190-208): significantly decreased levels of TIA1 and G3BP1 granules
density of axonal G3BP1-mCherry aggregates along 100 μm axon [2]: striking decrease
motility of remaining G3BP1-mCherry aggregates [2]: greater motility
size of G3BP1-mCherry aggregates (SG-like structures) [2]: significantly smaller
MPP+-induced degeneration of motor neuron neurites [3]: prevents mitotoxin-induced degeneration
MPP+-induced degeneration of motor neuron neurites ([3]; listed as G3BP1 190-208): protected against MPP+-induced degeneration
penetration into cell bodies and axons [4]: penetration
